Measured values reported in ChEMBL document CHEMBL1144151, “Two novel anti-emetic principles of Alpinia katsumadai” (1999).

How the values were obtained:
Assay type in all cases: functional
Details in all cases: route intraperitoneal
Gallus gallus [1] = experiment: Anti-emetic activity against copper sulfate-induced emesis in 4 days old chicks assessed as inhibition of number of retching reflexes at 50 mg/kg, ip measured 10 mins after copper sulfate challenge
Gallus gallus [2] = experiment: Anti-emetic activity against copper sulfate-induced emesis in 4 days old chicks assessed as inhibition of number of retching reflexes at 10 mg/kg, ip measured 10 mins after copper sulfate challenge
Gallus gallus [3] = experiment: Anti-emetic activity against copper sulfate-induced emesis in 4 days old chicks assessed as inhibition of number of retching reflexes at 20 mg/kg, ip measured 10 mins after copper sulfate challenge

## O=C(CCc1ccccc1)CC(/C=C/c1ccccc1)c1c(O)cc(/C=C/c2ccccc2)oc1=O (centres undefined) [KATSUMADAIN B]
Gallus gallus [1]
  inhibition in vivo at 50 mg/kg: 41.4%

## O=C(CCc1ccccc1)C[C@@H]1C[C@@H](c2ccccc2)c2c(cc(/C=C/c3ccccc3)oc2=O)O1 [KATSUMADAIN A]
Gallus gallus [2]
  inhibition in vivo at 10 mg/kg: 8.8%
Gallus gallus [3]
  inhibition in vivo at 20 mg/kg: 14.5%
Gallus gallus [1]
  inhibition in vivo at 50 mg/kg: 50.2%
